According to patent publication US20250340510A1, “Substituted Phenylbenzenesulfonamide Derivatives and Uses Thereof” (Nine Square Therapeutics Corporation, priority 2022, published 2025):
pEC50: −log10 of the molar value.

How the values were obtained:
TFEB = TFEB translocation assay in HeLa cells (nuclear to cytoplasmic TFEB ratio, high-content imaging); type: cell-based; settings: Homo sapiens, 1.5 h, 90 mins incubation at 37° C., ratio of nuclear to cytoplasmic TFEB
Description: Example B2. TFEB Translocation Assay
Rabbit TFEB antibody, Cell Signaling Technology #4240S
PFA 16% MeOH-free, Election Microscopy Sciences #50-980-487
HCS CellMask Deep Red, ThermoFisher Scientific #H32721
Plates: Perkin Elmer Phenoplate #605730 black optically clear, tissue culture treated 384-well plate
Example B2.2 Method, Day 1: Cells Seeded in 384WP
Cells were seeded in the afternoon. The outer one row of the plate was not used to avoid outer well edge effects.
HeLa cells were detached using trypsin, and the cells were counted using a cell counter.
4000 HeLa cells were seeded per well in […] growth media (DMEM with 10% FBS, 1 mM sodium pyruvate and Pen-Strep).
Example B2.3 Method, Day 2: Assay with TRPML1 Compounds+Staining
Compounds were added to cells using a Tecan D300e dispenser.
Cells were incubated for 90 mins at 37° C. with the compounds (compound range: 80 nM-[…] (2× step dilution—8 dilution steps, 3 replicates per condition)
The cells were fixed by adding 16.5 μL of 16% PFA (4% final) and incubating for 15 min at room temperature.
The cells were washed with 3× in PBS-TX (PBS+0.1% Triton X-100)−1×100 μL followed by 2×50 μL.
The cells were blocked and permeabilized in 30 μL of blocking buffer (PBS-TX+5% goat serum) for 1 h.
The cells were incubated with TFEB antibody (1:200, CST 4240S) in 30 μL blocking buffer overnight at 4° C. The plates were kept damp to avoid evaporation.
Example B2.4 Method, Day 3: Staining+Imaging
The cells were washed 3× in PBS-TX—3×100 μL with a Biotek EL406 washer.
The cells were incubated with Goat anti-Rb Alexa-Fluor 488 (1:2000), cell mask (1:10,000) and Hoechst (1:10,000) in 30 μL blocking buffer for 1 h at room temperature. The solution was dispensed using a 5 μL peristaltic cassette (EL406).
The cells were washed 3× in PBS-TX—3×100 μL with a EL406 washer, then […] PBS was dispensed using a 5 μL peristaltic cassette (EL406).
The cells were imaged on an Operetta CLS High-content imaging system using a 20× water immersion objective (NA 1.0) the same day.
Image analysis was performed using Harmony V4.9 (Perkin Elmer). Briefly, nuclei were segmented from background-corrected images using Hoechst intensity, and cell body segmented using HCS CellMask DeepRed. A sliding parabola filter was applied to the AlexaFluor 488 channel (TFEB), before sum pixel intensity in the nuclear and cytoplasmic regions was calculated. A ratio of nuclear to cytoplasmic TFEB was used to define TFEB translocation from the cytosolic to nuclear compartment. The EC50 values derived by fitting the data to a sigmoidal dose response curve using Prism 9 (Graphpad).

TRPML1 = TRPML1 (Homo sapiens, UniProt Q9GZU1); assay: Calcium flux in HEK293 overexpressing TRPML1 plasma membrane variant (FLIPR, Calcium 6 dye); type: cell-based; settings: HEK293/TRPML1-PM clone A5 cells; 4-parameter logistic fit; read-out: TRPML1 calcium flux (FLIPR) dose response: EC50
Chain of TRPML1 (Q9GZU1 17-572 limits assumed): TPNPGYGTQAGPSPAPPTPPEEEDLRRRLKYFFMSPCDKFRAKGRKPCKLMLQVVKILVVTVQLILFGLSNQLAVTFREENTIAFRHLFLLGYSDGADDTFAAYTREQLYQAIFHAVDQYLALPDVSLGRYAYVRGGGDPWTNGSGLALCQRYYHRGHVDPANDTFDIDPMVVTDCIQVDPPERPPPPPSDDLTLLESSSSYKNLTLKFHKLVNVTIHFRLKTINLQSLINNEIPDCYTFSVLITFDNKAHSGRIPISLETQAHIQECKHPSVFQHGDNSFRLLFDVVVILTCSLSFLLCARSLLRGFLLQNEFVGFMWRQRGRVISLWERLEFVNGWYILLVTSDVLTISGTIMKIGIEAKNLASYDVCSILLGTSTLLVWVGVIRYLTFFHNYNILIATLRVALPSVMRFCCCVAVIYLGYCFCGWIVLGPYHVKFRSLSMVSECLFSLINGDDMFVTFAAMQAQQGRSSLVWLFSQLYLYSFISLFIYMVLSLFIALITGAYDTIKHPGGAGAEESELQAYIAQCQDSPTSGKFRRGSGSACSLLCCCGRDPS
Summary of the method: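 HEK293 clone expressing plasma-membrane-targeted TRPML1 (N- and C-terminal dileucine motifs deleted), loaded with Calcium 6 dye for 2 h at 37 °C in HBSS/20 mM HEPES pH 7.4. Fluorescence recorded 10 s baseline then 170 s after compound addition. Max-minus-min response over baseline fitted by 4-parameter logistic for EC50.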

| pEC50 (TFEB; HeLa) | pEC50 (TRPML1) | SMILES | pEC50 (TFEB) |
| --- | --- | --- | --- |
| 6.27 | 6.38 | CN(CC1CCCC1)c1ccccc1NS(=O)(=O)c1ccc(S(=O)(=O)N(C)C)cc1 [Compound 25, N1-(2-((cyclopentylmethyl)(methyl)amino)phenyl)-N4,N4-dimethylbenzene-1,4-disulfonamide] |  |
| 6.57 | 6.59 | CN(c1ccccc1NS(=O)(=O)c1ccc(S(=O)(=O)N(C)C)cc1)C1CCC(C)(C)C1 (stereo not shown) [Compound 20, N1-(2-((3,3-dimethylcyclopentyl)(methyl)amino)phenyl)-N4,N4-dimethylbenzene-1,4-disulfonamide] |  |
| 6.12 | 5.96 | CN(c1ccccc1NS(=O)(=O)c1ccc(S(=O)(=O)N(C)C)cc1)C12CC(C)(C1)C2 [Compound 115, N1,N1-dimethyl-N4-(2-(methyl(3-methylbicyclo[1.1.1]pentan-1-yl)amino)phenyl) benzene-1,4-disulfonamide] |  |
| 5.64 | 6.29 | CN(c1ccccc1NS(=O)(=O)c1ccc(S(=O)(=O)N(C)C)cc1)C1CCC(C)(C)CC1 [Compound 29, N1-(2-((4,4-dimethylcyclohexyl)(methyl)amino)phenyl)-N4,N4-dimethylbenzene-1,4-disulfonamide] |  |
| 6.40 | 6.50 | CN(CC12CC(C)(C1)C2)c1ccccc1NS(=O)(=O)c1ccc(S(=O)(=O)N(C)C)cc1 [Compound 65, N1,N1-dimethyl-N4-(2-(methyl((3-methylbicyclo[1.1.1]pentan-1-yl)methyl)amino)phenyl)benzene-1,4-disulfonamide] |  |
| 6.33 | 6.43 | CN(CC1CCC1)c1ccccc1NS(=O)(=O)c1ccc(S(=O)(=O)N(C)C)cc1 [Compound 106, N1-(2-((cyclobutylmethyl)(methyl)amino)phenyl)-N4,N4-dimethylbenzene-1,4-disulfonamide] |  |
| 5.63 | 6.06 | CN(CC1(C)CCOCC1)c1ccccc1NS(=O)(=O)c1ccc(S(=O)(=O)N(C)C)cc1 [Compound 10, N1,N1-dimethyl-N4-(2-(methyl((4-methyltetrahydro-2H-pyran-4-yl)methyl)amino)phenyl)benzene-1,4-disulfonamide] |  |
| 6.29 | 6.46 | CN(c1ccccc1NS(=O)(=O)c1ccc(S(=O)(=O)N(C)C)cc1)C1CCOC1(C)C (stereo not shown) [Compound 97, N1-(2-((2,2-dimethyltetrahydro-furan-3-yl)(methyl)amino)phenyl)-N4,N4-dimethylbenzene-1,4-disulfonamide] |  |

The remaining lines, values behind:

| SMILES | pEC50 (TFEB; HeLa) | pEC50 (TRPML1) | pEC50 (TFEB) |
| --- | --- | --- | --- |
| CN(CC1CCCCC1)c1ccccc1NS(=O)(=O)c1ccc(S(=O)(=O)N(C)C)cc1 [Compound 23, N1-(2-((cyclohexylmethyl)(methyl)amino)phenyl)-N4,N4-dimethylbenzene-1,4-disulfonamide] | 6.70 | 6.39 |  |
| CC(C)CN(C)c1c(Cl)cccc1NS(=O)(=O)c1ccc(S(=O)(=O)N(C)C)cc1 [Compound 76, N1-(3-chloro-2-(isobutyl(methyl)amino)phenyl)-N4,N4-dimethylbenzene-1,4-disulfonamide] | 6.48 | 6.28 |  |
| CCN(C)c1c(Cl)cccc1NS(=O)(=O)c1ccc(S(=O)(=O)N(C)C)cc1 [Compound 78, N1-(3-chloro-2-(ethyl(methyl)amino)phenyl)-N4,N4-dimethylbenzene-1,4-disulfonamide] | 5.84 | 6.06 |  |
| CN(Cc1cncs1)c1c(Cl)cccc1NS(=O)(=O)c1ccc(S(=O)(=O)N(C)C)cc1 [Compound 73, N1-(3-chloro-2-(methyl(thiazol-5-ylmethyl)amino)phenyl)-N4,N4-dimethylbenzene-1,4-disulfonamide] | 5.31 | 6.00 |  |
| CN(C)S(=O)(=O)c1ccc(S(=O)(=O)Nc2ccccc2N(CC2COC2)C2CCCCC2)cc1 [Compound 84, N1-(2-(Cyclohexyl(oxetan-3-ylmethyl)amino)phenyl)-N4,N4-dimethylbenzene-1,4-disulfonamide] | 6.18 | 6.25 |  |
| CC(C)CCN(C)c1c(Cl)cccc1NS(=O)(=O)c1ccc(S(=O)(=O)N(C)C)cc1 [Compound 67, N1-(3-chloro-2-(isopentyl(methyl)amino)phenyl)-N4,N4-dimethylbenzene-1,4-disulfonamide] | 6.45 | 6.38 |  |
| CN(CC1(C)COC1)c1ccccc1NS(=O)(=O)c1ccc(S(=O)(=O)N(C)C)cc1 [Compound 49, N1,N1-dimethyl-N4-(2-(methyl((3-methyloxetan-3-yl)methyl)amino)phenyl)benzene-1,4-disulfonamide] |  | 5.94 | 5.10 |
| CN(c1c(F)cccc1NS(=O)(=O)c1ccc(S(=O)(=O)N(C)C)cc1)C1CCCCC1 [Compound 12, N1-(2-(cyclohexyl(methyl)amino)-3-fluorophenyl)-N4,N4-dimethylbenzene-1,4-disulfonamide] | > 7.10 | 6.14 |  |
| CC(C)CCN(C)c1ccccc1NS(=O)(=O)c1ccc(S(=O)(=O)N(C)C)cc1 [Compound 6, N1-(2-(isopentyl(methyl)amino)phenyl)-N4,N4-dimethylbenzene-1,4-disulfonamide] | 5.31 | 6.54 |  |
| CN(C)S(=O)(=O)c1ccc(S(=O)(=O)Nc2ccccc2N(C)[C@H]2CC[C@@H](C)CC2)cc1 [Compound 30, N1,N1-dimethyl-N4-(2-(methyl((1s,4s)-4-methylcyclohexyl)amino)phenyl)benzene-1,4-disulfonamide] | 5.93 | 6.44 |  |
| CCCN(C)c1c(Cl)cccc1NS(=O)(=O)c1ccc(S(=O)(=O)N(C)C)cc1 [Compound 74, N1-(3-chloro-2-(methyl(propyl)amino)phenyl)-N4,N4-dimethylbenzene-1,4-disulfonamide] | 6.17 | 6.62 |  |
| [2H]C([2H])([2H])N(c1ccccc1NS(=O)(=O)c1ccc(S(=O)(=O)N(C)C)cc1)C1CCCCC1 [Compound 102, N1-(2-(cyclohexyl(methyl-d3)amino)phenyl)-N4,N4-dimethylbenzene-1,4-disulfonamide] | 6.41 | 6.39 |  |
| Cc1cccc(NS(=O)(=O)c2ccc(S(=O)(=O)N(C)C)cc2)c1N(C)Cc1cncs1 [Compound 72, N1,N1-Dimethyl-N4-(3-methyl-2-(methyl(thiazol-5-ylmethyl)amino)phenyl)benzene-1,4-disulfonamide] | 5.75 | 6.24 |  |
| CN(Cc1cncs1)c1c(F)cccc1NS(=O)(=O)c1ccc(S(=O)(=O)N(C)C)cc1 [Compound 70, N1-(3-Fluoro-2-(methyl(thiazol-5-ylmethyl)amino)phenyl)-N4,N4-dimethylbenzene-1,4-disulfonamide] | 5.16 | 5.87 |  |
| CN(c1ccccc1NS(=O)(=O)c1ccc(S(=O)(=O)N(C)C)cc1)C1CCCC1 [Compound 24, N1-(2-(cyclopentyl(methyl)amino)phenyl)-N4,N4-dimethylbenzene-1,4-disulfonamide] | 5.73 | 6.55 |  |
| CN(Cc1cscn1)c1c(F)cccc1NS(=O)(=O)c1ccc(S(=O)(=O)N(C)C)cc1 [Compound 68, N1-(3-fluoro-2-(methyl(thiazol-4-ylmethyl)amino)phenyl)-N4,N4-dimethylbenzene-1,4-disulfonamide] | 5.65 | 5.99 |  |
| CN(C)S(=O)(=O)c1ccc(S(=O)(=O)Nc2ccccc2N(CC(F)(F)F)C2CCCCC2)cc1 [Compound 81, N1-(2-(cyclohexyl(2,2,2-trifluoroethyl)amino)phenyl)-N4,N4-dimethylbenzene-1,4-disulfonamide] | 6.49 | 6.34 |  |
| CCN(CC)c1c(Cl)cccc1NS(=O)(=O)c1ccc(S(=O)(=O)N(C)C)cc1 [Compound 77, N1-(3-chloro-2-(diethylamino)phenyl)-N4,N4-dimethylbenzene-1,4-disulfonamide] | 6.15 | 6.33 |  |
